The values that follow come from patent publication US10238641B2, “Materials and methods for diagnosis, prevention and/or treatment of stress disorders and conditions associated with A-beta peptide aggregation” (The United States of America as represented by the …, priority 2008, dated 2019).

This experiment has as its system nAChRs. It is filed as cell-based, rat.

Turning to `CN1CCCC1c1cccnc1` (stereo not shown) [nicotine, reference compound], the “reversal by α-Bgt of the beneficial actions against Aβ toxicity” value is reported as “able to reverse the beneficial actions of nicotine”.
